Measured values as given in PMC7411605, “Xanthine Oxidase Inhibition and Anti-LDL Oxidation by Prenylated Isoflavones from Flemingia philippinensis Root” (Molecules, 2020).
Several values for one entry are separate records, joined by “and”; a condition that tells them apart may be missing. Equal entries are not always repeated. Where two headings read alike, the source gives them in different places.

How the values were obtained:
[1] = target: T1, Bovine milk xanthine oxidase (XO, EC 1.17.3.2) (Bos taurus, UniProt P80457); experiment: Xanthine oxidase inhibition kinetics (Lineweaver–Burk and Dixon plots); format: biochemical; conditions: for Inhibition Mode: Lineweaver–Burk plots, xanthine 15, 30, 60 μM; for KIS: binding of inhibitor to enzyme-substrate complex, secondary plot of intercept
T1 construct: Xanthine oxidase from bovine milk (EC 1.17.3.2); purchased Sigma Aldrich Co., (St. Louis, MO, USA); host or cells: bovine milk
Experimental: The inhibition mode and inhibitory constants were determined by Lineweaver–Burk and Dixon plots. For obtaining double reciprocal plots, was measured the reaction absorbance of the enzyme, inhibited by different concentrations of inhibitors, with three concentrations of xanthine (15, 30, and 60 μM) at 295 nm and 37 °C. The corresponding kinetic parameters, namely the Michaelis-Menten constant (Km), maximal velocity (Vmax), inhibitory constant (Ki), and dissociation constant of a binding site for the inhibitor to either free enzyme or the enzyme-substrate complex (KI and KIS) were determined by Equations (2)–(4).

[2] = tested on: human LDL; experiment: TBARS assay of Cu2+ induced LDL oxidation; format: biochemical; conditions: for IC50: LDL 500 μg/mL, 10 μM Cu2+, 37 °C, 4 h; for Inhibition Rate: at 10 μM of compound, oxidized LDL induced by Cu2+
Experimental: Thiobarbituric acid reactive substances (TBARS) assay was carried out according to the previous method with minor modifications. The absorbance of a product of a reaction between thiobarbituric acid (TBA) and malondialdehyde (MDA) was measured at 540 nm. First, 220 μL of 500 μg/mL LDL in a buffer (10 mM PBS, pH 7.4), 10 μL of […], and 10 μL of different concentrations from 0 to 3 mM of isoflavones or probucol as a positive control were mixed in 1.5 mL Eppendorf tube and incubated at 37 °C for 4 h. After incubation, 100 μL of trichloroacetic acid (TCA) and 100 μL of 0.67% thiobarbituric acid (TBA)/0.05 N NaOH were added to the reaction mixture and heated in the water bath at 100 °C for 15 min. After heating, the mixture was cooled on the ice and centrifuged for 15 min at 3000 rpm. The absorbance of supernatant was measured and the IC50 values were calculated from the inhibition rate derived from Equation (1).

[3] = tested on: human LDL; experiment: Conjugated diene formation on Cu2+ induced LDL oxidation; format: biochemical; conditions: at 10 μM of compound; 234 nm, followed for 180 min
Experimental: The formation of conjugated dienes from oxLDL was assessed by the method. The conjugated diene formation occurred in the clear bottom 96-well plate. The mixture of each well containing 230 μL of 550 μg/mL LDL in the buffer (10 mM PBS, pH 7.4) and 10 μL of 250 μM CuSO4 (final concentration: 10 μM) in the presence or absence of isoflavones or probucol as a positive control (final concentration: 10 μM) were incubated at 37 °C for 4 h. Then, the reaction was screened at 234 nm for 180 min every 5 min, continuously, incubating in the SpectraMax M3 multi-mode microplate reader. In the observed absorbance spectra, the lag time of tested samples was obtained as the endpoint indicated in the lag phase.

[4] = target: T1, Bovine milk xanthine oxidase (XO, EC 1.17.3.2); experiment: Xanthine oxidase activity (uric acid formation at 295 nm); format: biochemical; conditions: sample concentration which leads to 50% xanthine oxidase activity loss; xanthine substrate, pH 7.5, 37 °C; read-out: IC50, xanthine oxidase inhibition (converted)
Experimental: The half-maximal inhibitory concentrations (IC50) were calculated according to the enzyme inhibition rate (%) derived from the change of uric acid formation in comparison with the concentration of inhibitors. The inhibition rate derived from the non-linear regression fitting to Equation (1). Inhibition rate (%) = 100 × [(rate of control reaction − rate of inhibitor reaction)/rate of control reaction](1)

[5] = target: T2, xanthine oxidase (Bos taurus, UniProt P80457); experiment: Fluorescence quenching of xanthine oxidase (binding affinity); parameters: species or system bovine; conditions: for Stern–Volmer constant KSV / Kd: excitation 290 nm, emission 300-400 nm; for Kd: read-out: binding constant KA (converted); for number of binding sites n: fluorescence quenching
T2 construct: Xanthine oxidase from bovine milk (EC 1.17.3.2); purchased Sigma Aldrich Co., (St. Louis, MO, USA); host or cells: bovine milk
Experimental: The binding affinity between xanthine oxidase and isolated isoflavones were measured by fluorescence quenching method. For the fluorescence quenching experiments, the Trp intensities of xanthine oxidase were monitored wavelength of emission from 300 to 400 nm and excitation of 290 nm. The reaction mixture containing 180 μL of 200 mM sodium pyrophosphate/HCl (pH 7.5), 10 μL of isolated isoflavones diluted in DMSO (3.125, 6.25, 12.5, 25.0, and 50.0 μM), and 10 μL of 1 unit/mL xanthine oxidase was placed in black/flat bottom 96-well microplates. […] The quenching parameters such as the Stern–Volmer constant (KSV), binding constant (KA), and the number of binding sites (n) were determined by the Equations (5) and (6). F0 − F = 1 + KSV [Q](5) Log [(F0 − F)/F] = log KA + n log [Q]f(6)

[6] = tested on: human LDL; experiment: Conjugated diene formation on Cu2+ induced LDL oxidation; format: biochemical
[7] = tested on: human LDL; experiment: Relative electrophoretic mobility (REM) of Cu2+ oxidized LDL; format: biochemical; conditions: 10 μM compound, 10 μM CuSO4, 16 h
Experimental: The relative electrophoretic mobility (REM) of native LDL and oxidized LDL induced by Cu^2+ was performed according to the procedures of references. Before the electrophoresis, the samples containing 10 μM of CuSO4 and 10 μM of nine isoflavones or probucol were treated into LDL (500 μg/mL), then incubated for 16 h at 37 °C in dark condition. The native LDL and pretreated LDL samples loaded onto 0.5% agarose gel in TAE buffer (40 mM Tris-acetate with 1 mM EDTA, pH 8.0) and electrophoresed for 50 min at 100 V. After the electrophoresis, the gel was fixed in 40% ethanol with 10% acetic acid for 30 min, stained with 0.15% coomassie brilliant blue R250, and LDL bands visualized by using the destaining solution (methanol:acetic acid:water, 3:2:15, v/v).

[8] = target: T1, Bovine milk xanthine oxidase (XO, EC 1.17.3.2); experiment: Xanthine oxidase activity (uric acid formation at 295 nm); format: biochemical; conditions: initial velocity versus enzyme amount, 0~12.5 μM of compound
[9] = Dixon plots, read-out: Ki (inhibition constant)
[10] = binding of inhibitor to free enzyme, secondary plot of slope, read-out: KI

T2 sequence (P80457 whole entry): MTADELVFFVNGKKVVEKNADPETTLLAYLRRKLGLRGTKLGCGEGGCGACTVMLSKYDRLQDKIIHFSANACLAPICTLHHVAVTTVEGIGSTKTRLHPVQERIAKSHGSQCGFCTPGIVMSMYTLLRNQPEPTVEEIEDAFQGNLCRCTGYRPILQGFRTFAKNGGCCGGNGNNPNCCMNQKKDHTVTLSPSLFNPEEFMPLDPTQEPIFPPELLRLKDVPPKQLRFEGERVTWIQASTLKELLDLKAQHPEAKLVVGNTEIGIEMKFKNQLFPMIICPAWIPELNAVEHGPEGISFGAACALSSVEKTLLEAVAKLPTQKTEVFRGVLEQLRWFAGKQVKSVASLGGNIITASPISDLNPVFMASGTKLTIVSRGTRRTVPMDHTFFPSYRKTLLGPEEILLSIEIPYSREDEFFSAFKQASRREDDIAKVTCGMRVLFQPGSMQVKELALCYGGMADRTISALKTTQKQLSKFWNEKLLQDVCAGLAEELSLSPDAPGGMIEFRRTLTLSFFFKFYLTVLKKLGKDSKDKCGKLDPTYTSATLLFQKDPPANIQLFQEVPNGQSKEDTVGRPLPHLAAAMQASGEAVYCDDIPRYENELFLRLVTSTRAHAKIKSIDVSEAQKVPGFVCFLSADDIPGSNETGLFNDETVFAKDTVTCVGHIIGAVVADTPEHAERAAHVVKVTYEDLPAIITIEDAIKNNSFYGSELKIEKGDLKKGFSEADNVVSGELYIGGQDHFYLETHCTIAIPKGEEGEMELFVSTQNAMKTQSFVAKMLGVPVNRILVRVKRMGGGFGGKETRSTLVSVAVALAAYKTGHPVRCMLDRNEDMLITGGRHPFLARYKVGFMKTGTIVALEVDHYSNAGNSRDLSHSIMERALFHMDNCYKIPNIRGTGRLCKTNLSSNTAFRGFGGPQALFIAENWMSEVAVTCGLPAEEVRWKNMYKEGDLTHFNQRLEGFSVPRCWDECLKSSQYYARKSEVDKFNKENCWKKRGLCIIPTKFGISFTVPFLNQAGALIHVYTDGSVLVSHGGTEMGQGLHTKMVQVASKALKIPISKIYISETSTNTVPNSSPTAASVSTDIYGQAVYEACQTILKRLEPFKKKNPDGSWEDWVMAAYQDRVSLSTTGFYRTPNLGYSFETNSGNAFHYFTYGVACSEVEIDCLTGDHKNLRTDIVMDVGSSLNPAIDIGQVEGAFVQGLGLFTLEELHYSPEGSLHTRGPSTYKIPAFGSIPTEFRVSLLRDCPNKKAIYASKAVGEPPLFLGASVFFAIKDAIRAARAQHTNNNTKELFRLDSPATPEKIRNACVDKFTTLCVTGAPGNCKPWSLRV
T1 sequence (P80457 whole entry): as above

SMILES	Ki [1, 9] [µM]	Inhibition Mode [1]	KIS [1] [µM]	Ki [1, 10] [µM]	IC50 [2]	IC50 [4] [µM]	Stern–Volmer constant KSV [5] [L/mol]	Kd [5] [µM]	number of binding sites n [5]	Reversibility of XO inhibition [8]	Inhibition Rate [2] [%]	fold more active than genistein in TBARS assay ([2]; ratio of TBARS IC50 values versus genistein (IC50 = 30.4 μM)) [fold]	Lag Time of conjugated diene formation [3] [min]	Lag Time of conjugated diene formation ([6]; 0.3 μM of compound) [min]	Lag Time of conjugated diene formation ([6]; 0.6 μM of compound) [min]	Lag Time of conjugated diene formation ([6]; 1.25 μM of compound) [min]	Effect on mobility of oxidized LDL (REM) [7]
CC(C)=CCc1c(-c2coc3cc(O)cc(O)c3c2=O)cc2c(c1O)OC(C)(C)C=C2 [Compound 6, 5,7,3′-trihydroxy-2′-(3-methylbut-2-enyl)-4′,5′-(3,3-dimethylpyrano)isoflavone]	19.3	Mixed type I	40.0	18.8	10.9 µM	20.4	36450	1.6	0.8154	–	48.8	–	–	–	–	–	clearly reduced
CC(C)=CCc1c2c(c3occ(-c4ccc(O)cc4)c(=O)c3c1O)C=CC(C)(C)O2 [Compound 8, osajin]	33.9	Mixed type I	52.4	35.1	24.6 µM	34.7	9870	2.14	0.6889	–	25.4	–	108	–	–	–	–
CC(C)=CCc1c(O)c(CC=C(C)C)c2occ(-c3ccc(O)c(O)c3)c(=O)c2c1O [Compound 3, 6,8-diprenylorobol]	5.5	Mixed type I	15.5	5.7	1.9 µM	7.8	125300	1.11	1.4392	reversible	98.6	–	> 180	–	–	–	–
CC(C)=CCc1c2c(c(O)c3c(=O)c(-c4ccc(O)c(O)c4)coc13)C=CC(C)(C)O2 [Compound 2, auriculasin]	11.1	Mixed type I	28.1	10.8	2.4 µM	12.4	77550	1.33	1.0359	–	95.9	–	> 180	–	–	–	–

Second part, led by results:

Ki [1, 9] [µM]	Inhibition Mode [1]	KIS [1] [µM]	Ki [1, 10] [µM]	IC50 [2]	IC50 [4] [µM]	Stern–Volmer constant KSV [5] [L/mol]	Kd [5] [µM]	number of binding sites n [5]	Reversibility of XO inhibition [8]	SMILES	Inhibition Rate [2] [%]	fold more active than genistein in TBARS assay ([2]; ratio of TBARS IC50 values versus genistein (IC50 = 30.4 μM)) [fold]	Lag Time of conjugated diene formation [3] [min]	Lag Time of conjugated diene formation ([6]; 0.3 μM of compound) [min]	Lag Time of conjugated diene formation ([6]; 0.6 μM of compound) [min]	Lag Time of conjugated diene formation ([6]; 1.25 μM of compound) [min]	Effect on mobility of oxidized LDL (REM) [7]
11.5	Mixed type I	23.0	10.7	0.7 µM	10.9	94970	1.12	1.4031	–	CC(C)=CCc1cc(-c2coc3cc(O)cc(O)c3c2=O)c(CC=C(C)C)c(O)c1O [Compound 4, 5,7,3′,4′-tetrahydroxy-2′,5′-di(3-methylbut-2-enyl)isoflavone]	100	40	> 180	120	160	180	–
11.3	Mixed type I	12.9	7.2	15.2 µM	16.9	47970	1.5	0.8836	–	CC(C)=CCc1c(O)c(CC=C(C)C)c2occ(-c3ccc(O)cc3)c(=O)c2c1O [Compound 7, 8-γ,γ-dimethylallylwighteone]	38.7	–	124	–	–	–	clearly reduced
35.1	Mixed type I	49.0	35.2	14.6 µM	36.4	9300	4.11	0.6736	–	COc1cc(-c2coc3c(CC=C(C)C)c(O)c(CC=C(C)C)c(O)c3c2=O)ccc1O [Compound 9, flemingsin]	40.3	–	128	–	–	–	clearly reduced
12.8	Mixed type I	26.3	12.5	2.7 µM and 2.8 µM	14.8	55310	1.38	1.0018	–	C=CC(C)(C)C1=Cc2c(c(CC=C(C)C)c3occ(-c4ccc(O)c(O)c4)c(=O)c3c2O)OC1(C)C [Compound 5, flemiphilippinin A]	94.1	–	> 180	–	–	–	–
–	–	–	–	35.1 µM	–	–	–	–	–	CC(C)(Sc1cc(C(C)(C)C)c(O)c(C(C)(C)C)c1)Sc1cc(C(C)(C)C)c(O)c(C(C)(C)C)c1 [Probucol, probucol, reference compound]	16.4	–	83	–	–	–	–
11.5	competitive inhibitor	–	–	30.4 ± 1.5 µM	25 ± 2.3	18450	1.99	0.7268	–	O=c1c(-c2ccc(O)cc2)coc2cc(O)cc(O)c12 [Compound 1, genistein]	20.3	–	80	–	–	–	–
